The test system of experiment [1] is Artemia salina instar II larvae. In words: In vitro efficacy against Artemia salina (larval survival). The class given is in vivo. On the procedure:
1. In Vitro Efficacy Against Artemia salina
The crustaceous marine animal Artemia salina was used as a model organism for other marine fouling organisms.
An artificial seawater medium inoculated with approximately 30 Artemia salina instar II larvae was introcuced in each well of a 24 well microtiter plate (2 ml per well). This culture was incubated with the test compound dissolved in dimethylsulfoxide (8000 ppm stock solution in DMSO) in order to have a final concentration of the test compound ranging from 0.027 ppm to 20 ppm in 24 steps. Survival of the Artemia salina larvae was evaluated after 24 and 48 hours. Zinc pyrithione was used as a reference art known antifouling agent and a DMSO solution without test compound was used as control.
The ECX value (in […]=ppm): lowest concentration of the test compound at which moderate activity (reduced vitality of Artemia salina larvae) was observed and has been listed below in Table 1.

In experiment [2] the test system is animal fouling. In words: Field evaluation of marine antifouling activity (painted PVC boards immersed in sea water). The following applies: Oosterschelde at Bruinisse, average of two scores; for Fouling scores after x weeks: vinylite paint on PVC panels; for Fouling scores after 12 weeks: rosin paint on PVC panels. From the text:
2. Field Evaluation of Marine Antifouling Activity […]
Composition vinylite paint (% w/w): 9.1% test compound (74% in the dried coating), 3.2% vinylite, 87.7% cyclohexanone.
Composition rosin paint (% w/w): 6.7% test compound (18.4% in the dried coating), 34.9% rosin (69.6% in xylene), 6.3% vinyl resin, 5.7% tritolyl phosphate, 45.0% methyl isobutylketone and 1.4% xylene.
The PVC boards (10×2×0.5 cm) were painted twice to obtain a coating layer of 140 g/m^2 having a thickness of 50 μm and dried for two weeks before immersion in sea water. The exact quantity of test compound on each board was determined by comparing the initial and final weights of the PVC boards. The PVC boards were placed in a frame and suspended from the bottom of a raft at a depth of 0.6 m below the sea water surface level.
Rating system to evaluate surface fouling:
score 0: no growth on the panel score 1: up to 20% of the surface covered by fouling organisms score 2: between 21% and 40% of the surface covered by fouling organisms score 3: between 41% and 60% of the surface covered by fouling organisms score 4: between 61% and 80% of the surface covered by fouling organisms score 5: more than 81% of the surface covered by fouling organisms
Figures are an average of two scores (back and front of test panel).

Results on four molecules are retold here after patent US20090054470A1, “USE OF MITOCHONDRIAL ELECTRON TRANSPORT INHIBITORS TO CONTROL FOULING ORGANISMS” (priority 2005, published 2009).

`CC(C)(C)c1ccc(CCOc2ncnc3ccccc23)cc1` [fenazaquin]: the “ECX (lowest concentration at which reduced vitality of Artemia salina larvae)” value in experiment [1] (24 hours) and in experiment [1] (48 hours) was 0.84 mg/l (=ppm) throughout. Further, the “MIC (lowest concentration at which all Artemia salina larvae dead)” value (“MIC” for short) in experiment [1] (24 hours) and in experiment [1] (48 hours) was 1.5 mg/l (=ppm) each time. Also, the “Fouling scores after x weeks” value in experiment [2] (4 weeks) is 0; in experiment [2] (8 weeks), 0; in experiment [2] (15 weeks), 3 (score 3: between 41% and 60% of the surface covered by fouling organisms).

On to `CC(C)(C)c1ccc(CSc2cnn(C(C)(C)C)c(=O)c2Cl)cc1` [pyridaben], for which, in experiment [1] (24 hours), the “ECX (lowest concentration at which reduced vitality of Artemia salina larvae)” value is listed as 0.36 mg/l (=ppm) and the “MIC” value was 2 mg/l (=ppm). In experiment [1] (48 hours), the “ECX (lowest concentration at which reduced vitality of Artemia salina larvae)” value is on record as 0.36 mg/l (=ppm) and the “MIC” value is on record as 0.48 mg/l (=ppm). In addition, in experiment [2], the “Fouling scores after 12 weeks” value came out at 1.5.

As for Zinc pyrithione, in experiment [1] (24 hours), the “ECX (lowest concentration at which reduced vitality of Artemia salina larvae)” value is reported as 8.44 mg/l (=ppm) and the “MIC” value is 20 mg/l (=ppm). For the same molecule, in experiment [1] (48 hours), the “ECX (lowest concentration at which reduced vitality of Artemia salina larvae)” value is on record as 6.33 mg/l (=ppm) and the “MIC” value is 11.25 mg/l (=ppm).

As to `CCc1nn(C)c(C(=O)NCc2ccc(C(C)(C)C)cc2)c1Cl` [tebufenpyrad], in experiment [1] (24 hours), the “ECX (lowest concentration at which reduced vitality of Artemia salina larvae)” value is 1.13 mg/l (=ppm) and the “MIC” value was 2 mg/l (=ppm). Moreover, in experiment [1] (48 hours), the “ECX (lowest concentration at which reduced vitality of Artemia salina larvae)” value is on record as 0.84 mg/l (=ppm) and the “MIC” value was 1.5 mg/l (=ppm). In experiment [2], the “Fouling scores after 12 weeks” value is given as 1.5.
